Measurements as given in publication PMC10924921, “Mi-2β promotes immune evasion in melanoma by activating EZH2 methylation” (Nature Communications, 2024).
“Also recorded” adds a separate entry of the source.

Columns and labels:
Mi-2β mutation (H727A) = target: T1, Mi-2β mutation (H727A) (Homo sapiens, UniProt Q14839, H727A); assay: FRET-based nucleosome repositioning assay with mutant Mi-2β; type: biochemical; conditions: ATP 1 mM, Z36-MP5 10 µM
T1 construct: made in house
Method: based nucleosome repositioning assays were performed with different concentrations of Mi-2β and a non-
limiting ATP concentration (1 mM) for the indicated incubation time (n=3). c The ATP titration
(concentrations ranging from 0.1 to 300 µM) was performed with the FRET-based nucleosome
time. […] Values represent mean
based nucleosome repositioning assays.

[1] = test system: Cxcl9 and Cxcl10 mRNA in B16F10 cells; assay: RT-qPCR of Mi-2β target genes in treated cells; type: cell-based, mouse
Method: Z36-MP5 was chosen for further validation and experimental therapeutics in vivo. […] To investigate its cellular inhibitory activity, B16F10 cells were treated with Z36-MP5 at concentrations ranging from 5 to 100 µM, and the activation of Mi-2β target genes measured by RT-qPCR. […] In addition, the pharmacokinetic properties of Z36-MP5 in Sprague-Dawley rats with administration of intraperitoneal injection dose of 1.0 mg/kg. […] To exclude any effects on the host cells, we implanted Mi-2β-null melanoma cells into C57BL6 mice and then treated the mice with Z36-MP5 accompanied by anti-PD-1 therapy.
The total RNA was extracted with QIAGEN RNeasy kit […] for cDNA synthesis with SuperScript II Reverse Transcriptase (Invitrogen). In total, 40 ng cDNA was used for quantitative real-time PCR amplification by TaqMan Gene Expression Master Mix (Thermo Fisher Scientific). The relative transcript levels were normalized with GAPDH expression. The data were calculated with the comparative CT method. Primers for RT-qPCR assays are shown in Supplementary Data 3.

[2] = test system: H3K27me3 and H3K27ac in melanoma cells (B16F10, PM); assay: Western blot of epigenetic modifications of H3; type: cell-based, mouse
Method: The lysis buffer (50 mM Tris pH 7.4, 1% Triton X-100, 0.5 mM EDTA, 0.5 mM EGTA, 150 mM NaCl, 10% glycerol, 1 mM phenylmethylsulfonyl fluoride and complete protease inhibitor cocktail (Roche)) were used to prepare the whole-cell lysates, which was followed by homogenization and centrifuge (14,000 rpm for 15 min at 4 °C). Pierce BCA Protein Assay Kit (Thermo Fisher Scientific) was used to detect protein concentration. After SDS-PAGE separation and PVDF membrane (BIO-RAD) transfer of the proteins, the specific primary was probed at 4 °C for overnight, before incubated with corresponding horseradish peroxidase (HRP)-conjugated 2nd antibodies. Pierce ECL Western Blotting Substrate (Thermo Fisher Scientific) was used for protein detection. Antibodies were: anti-Mi-2β(1:1000), anti-EZH2 (ab70469, Abcam) (1:1000), anti-β-actin-peroxidase antibody (AC15) (1:5000) and anti-rabbit secondary antibody (A-4914) (1:10,000). Antibody information have shown in Supplementary data 3.
Supplementary Figure 10. […] A mouse survival curve is shown, with log-rank test for mouse survival P value. b,c The epigenetic modifications of H3 (H3K27ac, H3K27me1 and H3K27me3) were measured in B16F10 cells stimulated with GSK126 or Z36-MP5 as indicated (n = 3, independent experiments). d The amount of secreted Cxcl9 and Cxcl10 was measured by ELISA in […]

[3] = test system: Pmel-1 T cells co cultured with tumor cells; assay: Pmel-1 T-cell killing of tumor cells; type: cell-based, mouse
Method: To test whether Z36-MP5 affects cell proliferation, cells were seeded into 96-well plates at a density of 1 × 10^3 cells/100 μl per well. CCK-8 was used to detect changes in proliferation ability after 3 days of treatment with Z36-MP5 (25 μM). To test whether Mi-2β expression in T cells or treatment of T cells with Z36-MP5 affects the ability of T cells to kill tumor cells, Mi-2β in Pmel-1 T cells was manipulated or Pmel-1 cells were exposed to Z36-MP5 (25 μM) for 24 hrs. The number of cells was quantified. One thousand Pmel-1 T cells were then co cultured with 1000 tumor cells for 24 hrs, and the number of tumor cells was counted.
Supplementary Figure 8. In vitro assay for Mi-2β inhibitors. a The body weight changes of C57BL/6J mice treated with Z36-MP5 (30 mg/kg/day) for 2 weeks. Data are mean ± SEM (n=5). b H&E staining of tissues in C57BL/6J mice treated with or without Z36 -MP5 (30 mg/kg/day) for 2 weeks. […]
The growth of tumor grafts was measured. n = 5. g Mice bearing B16F10 cell s were treated with MS177 (100 mg/kg, 5 days) and then Z36 -MP5 (30 mg/kg/day) or vehicles, accompanied with anti -PD-1 antibody […]

EPHA1 = EPHA1 (Homo sapiens, UniProt P21709); assay: biochemical; set-up: KINOMEscan active-site competition binding panel (468 kinase assays), per cent of control at 1000 nM; conditions: KINOMEscan per cent of control (binding competition); read-out: Percent Control
EPHA1, sequence (P21709 whole entry): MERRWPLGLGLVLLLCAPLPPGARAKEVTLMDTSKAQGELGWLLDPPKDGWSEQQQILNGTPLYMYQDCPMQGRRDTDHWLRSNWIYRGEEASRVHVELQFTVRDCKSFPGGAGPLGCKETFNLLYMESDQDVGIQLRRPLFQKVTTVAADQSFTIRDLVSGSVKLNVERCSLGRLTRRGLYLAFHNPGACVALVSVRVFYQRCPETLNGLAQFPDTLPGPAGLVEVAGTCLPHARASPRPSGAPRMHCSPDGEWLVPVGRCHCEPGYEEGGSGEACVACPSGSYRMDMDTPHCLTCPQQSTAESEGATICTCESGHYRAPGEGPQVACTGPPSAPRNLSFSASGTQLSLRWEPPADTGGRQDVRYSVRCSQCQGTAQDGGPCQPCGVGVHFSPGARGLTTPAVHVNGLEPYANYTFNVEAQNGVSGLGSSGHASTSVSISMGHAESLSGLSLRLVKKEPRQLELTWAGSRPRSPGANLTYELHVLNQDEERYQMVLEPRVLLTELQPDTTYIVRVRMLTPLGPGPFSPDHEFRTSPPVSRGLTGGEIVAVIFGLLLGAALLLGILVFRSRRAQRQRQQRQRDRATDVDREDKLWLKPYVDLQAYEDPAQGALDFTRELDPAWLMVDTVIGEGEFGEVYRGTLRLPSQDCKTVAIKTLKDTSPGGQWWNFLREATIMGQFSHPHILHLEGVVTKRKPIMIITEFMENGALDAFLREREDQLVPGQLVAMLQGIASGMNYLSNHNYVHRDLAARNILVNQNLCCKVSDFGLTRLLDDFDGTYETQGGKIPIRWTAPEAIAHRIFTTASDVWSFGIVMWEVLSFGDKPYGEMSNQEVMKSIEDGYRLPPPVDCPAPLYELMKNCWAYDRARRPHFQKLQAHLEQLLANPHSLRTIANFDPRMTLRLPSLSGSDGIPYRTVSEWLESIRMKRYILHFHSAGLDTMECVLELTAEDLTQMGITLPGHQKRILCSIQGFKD
From the text: Figure S7 / Percent Control

B16F10 cell graft = assay: Syngeneic melanoma graft mouse model, tumor growth and survival
Method: Mi-2β knockdown or Scramble B16F10 cells (1.5 × 10^5) were mixed with BD matrigel (Matrix Growth Factor Reduced) (BD, 354230) in 100 μl PBS, and then subcutaneously injected into the right flanks of C57BL/6 mice of 8–10 week old (from the Jackson Laboratory, 000664). Tumor growth was measured with calipers, and size was expressed in cubic centimeters every 3 days. For antibody treatment, control IgG (10 mg/kg) or anti-PD-1 (RMP1-14, BioXCell, 10 mg/kg) was injected intraperitoneally (i.p.) on day 6, 9, 12, 15 and 18 after tumor cell inoculation. For tumor growth curve, grafts were measured with calipers and established (0.5*length × width^2) every three days. For survival tests, mice were euthanized when the tumor size exceeded 1 cm^3. […] The mice were euthanized after indicated days or when the allowable endpoint size (1 cm^3) was reached.

T1 sequence (Q14839 whole entry H727A): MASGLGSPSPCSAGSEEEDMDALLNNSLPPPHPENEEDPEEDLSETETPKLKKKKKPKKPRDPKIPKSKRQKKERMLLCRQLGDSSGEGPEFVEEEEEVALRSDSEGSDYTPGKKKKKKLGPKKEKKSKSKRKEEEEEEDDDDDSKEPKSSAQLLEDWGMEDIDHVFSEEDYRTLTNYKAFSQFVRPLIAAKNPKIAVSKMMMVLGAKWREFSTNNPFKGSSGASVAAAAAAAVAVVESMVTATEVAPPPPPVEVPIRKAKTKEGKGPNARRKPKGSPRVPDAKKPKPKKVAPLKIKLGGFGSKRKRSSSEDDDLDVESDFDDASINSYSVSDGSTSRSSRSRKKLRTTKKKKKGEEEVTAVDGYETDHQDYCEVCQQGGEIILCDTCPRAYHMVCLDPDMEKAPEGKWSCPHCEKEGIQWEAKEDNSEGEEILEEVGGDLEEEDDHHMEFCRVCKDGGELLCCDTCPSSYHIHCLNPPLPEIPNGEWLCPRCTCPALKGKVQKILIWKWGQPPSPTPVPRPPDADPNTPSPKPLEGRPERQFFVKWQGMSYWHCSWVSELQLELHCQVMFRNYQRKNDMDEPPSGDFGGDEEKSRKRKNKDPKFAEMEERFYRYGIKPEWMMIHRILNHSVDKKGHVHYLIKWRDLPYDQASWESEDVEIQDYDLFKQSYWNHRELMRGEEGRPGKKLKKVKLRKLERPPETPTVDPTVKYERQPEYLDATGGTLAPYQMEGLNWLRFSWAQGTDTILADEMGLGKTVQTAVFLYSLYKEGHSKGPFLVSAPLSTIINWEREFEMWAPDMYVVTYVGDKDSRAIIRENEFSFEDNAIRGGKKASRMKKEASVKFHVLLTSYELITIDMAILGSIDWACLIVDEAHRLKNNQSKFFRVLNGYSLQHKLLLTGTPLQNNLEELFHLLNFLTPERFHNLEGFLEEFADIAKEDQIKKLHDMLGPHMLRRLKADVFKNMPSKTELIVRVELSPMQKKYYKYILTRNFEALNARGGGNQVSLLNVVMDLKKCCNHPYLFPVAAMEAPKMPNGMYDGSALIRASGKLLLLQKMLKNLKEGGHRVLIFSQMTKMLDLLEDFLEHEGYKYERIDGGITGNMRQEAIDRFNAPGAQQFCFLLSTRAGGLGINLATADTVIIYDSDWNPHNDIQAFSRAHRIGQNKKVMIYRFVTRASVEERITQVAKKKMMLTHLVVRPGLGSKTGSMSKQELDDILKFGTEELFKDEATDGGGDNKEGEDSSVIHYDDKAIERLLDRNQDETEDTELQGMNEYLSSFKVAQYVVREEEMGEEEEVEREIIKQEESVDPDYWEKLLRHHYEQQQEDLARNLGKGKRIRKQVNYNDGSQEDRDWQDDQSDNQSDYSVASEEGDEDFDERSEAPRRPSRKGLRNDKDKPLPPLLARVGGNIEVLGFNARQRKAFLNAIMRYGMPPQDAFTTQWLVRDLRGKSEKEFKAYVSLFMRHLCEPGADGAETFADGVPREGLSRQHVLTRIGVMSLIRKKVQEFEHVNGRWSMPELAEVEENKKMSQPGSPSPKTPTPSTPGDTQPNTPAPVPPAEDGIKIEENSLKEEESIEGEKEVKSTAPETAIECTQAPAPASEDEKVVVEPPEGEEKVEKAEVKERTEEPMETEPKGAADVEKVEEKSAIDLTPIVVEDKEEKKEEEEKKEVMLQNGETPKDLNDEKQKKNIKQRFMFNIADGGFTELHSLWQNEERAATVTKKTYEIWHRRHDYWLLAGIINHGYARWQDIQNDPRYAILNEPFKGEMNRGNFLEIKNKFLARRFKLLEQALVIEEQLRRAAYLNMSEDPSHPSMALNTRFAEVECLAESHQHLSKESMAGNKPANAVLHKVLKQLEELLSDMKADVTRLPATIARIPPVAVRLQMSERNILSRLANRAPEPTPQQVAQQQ

Cn1c(=O)[nH]c2ccc(-c3cccc(C(=O)NC4CCn5ccnc5C4)c3)cc21 (stereo not drawn) [Z36-MP5]
sensitivity of Mi-2β H727A mutant to inhibitor (Mi-2β mutation (H727A)): no longer sensitive; also recorded: histidine 727 of Mi-2β dependent | expressions of Mi-2β target genes Cxcl9 and Cxcl10 ([1]; 5 μM to 100 μM): substantial increases | Mi-2β target gene expression (Cxcl9, Cxcl10 mRNA) ([1]; 25 µM, 24 h): induced Mi-2β target gene expression including Cxcl9 and Cxcl10 | H3K27ac level ([2]; PM cells, compared to GSK126 treatment): only slightly increased | level of H3K27me3 ([2]; melanoma cells): repressed | killing potential of T cells [3]: not significantly inhibited | remaining binding at 1 µM (EPHA1): 96% | treatment effect in mice treated with MS177 to inhibit EZH2 (B16F10 cell graft; B16F10 graft, MS177 100 mg/kg 5 days, then anti-PD-1 with Z36-MP5 or vehicle): No treatment effects were detected | effect on tumors generated from Mi-2β-null cells (B16F10 cell graft; Z36-MP5 30 mg/kg/day accompanied by anti-PD-1): No detectable inhibitory effect
